Experimental findings from US7915267B2, “Heterocyclic amide compound and use thereof” (Takeda Pharmaceutical Company Limited, priority 2005, dated 2011) are described below.

SMILES strings stand for the structures.

This assay concerns the target T1, MMP-13 (Homo sapiens, UniProt P45452).
T1 construct: purchased GenzymeTechne
As to the kind of experiment: MMP-13 inhibitory activity (fluorogenic substrate Cy3-PLGLK(Cy5Q)AR-NH2 enzyme assay). To be noted: compound 1 μM; 37° C., 40 min; APMA-activated MMP-13 precursor; read-out: MMP-13 inhibitory rate (%) at 1 μM. The format is biochemical. Here is the method:
To 10 μg of MMP-13 precursor (GenzymeTechne) was added 1 ml of assay buffer (50 mM Tris-HCl (pH 7.5), 10 mM CaCl2, 150 mM NaCl, 0.05% Brij-35), and 4-aminophenylmercuric acid (Sigma) was added to the final concentration of 1 mM. The MMP-13 precursor was activated by incubating at 37° C. for 2 hr.
In a 96 well black plate (Corning), to 6.3 ng/ml of MMP-13 solution (49 μl) diluted with assay buffer was added the test compound (1 μl) diluted with dimethyl sulfoxide (DMSO) and 620 nM Cy3-PLGLK(Cy5Q)AR-NH2 (50 μl, synthesized by Amersham Biosciences) in assay buffer was added to start the enzyme reaction. After incubation at 37° C. for 40 min, 500 mM EDTA solution (6 μl) was added to stop the reaction. For measurement, Farcyte (Amersham Biosciences) was used to measure at excitation wavelength 535 nm and measurement wavelength 595 nm.
T: value of well with addition of DMSO instead of test compound
C: value of well with addition of DMSO instead of test compound and addition of EDTA solution before addition of substrate solution
X: value of well with addition of test compound

Take `N#Cc1ccc2nc(C(=O)NCc3ccnc(OCCSc4nc[nH]n4)c3)[nH]c(=O)c2c1` [Example 20, 6-cyano-4-oxo-N-[(2-{[2-(1H-1,2,4-triazol-3-ylthio)ethyl]oxy}pyridin-4-yl)methyl]-3,4-dihydroquinazoline-2-carboxamide]: the inhibition at 1 µM was 89%. The result for `N#Cc1ccc2nc(C(=O)NCc3ccnc(OCCCc4nc[nH]n4)c3)[nH]c(=O)c2c1` [Example 23, 6-cyano-4-oxo-N-[(2-{[3-(1H-1,2,4-triazol-3-yl)propyl]oxy}pyridin-4-yl)methyl]-3,4-dihydroquinazoline-2-carboxamide] reads 96%. With `Cc1csc2nc(C(=O)NCc3ccnc(OCCCc4nc[nH]n4)c3)[nH]c(=O)c12` [Example 24, 5-methyl-4-oxo-N-[(2-{[3-(1H-1,2,4-triazol-3-yl)propyl]oxy}pyridin-4-yl)methyl]-3,4-dihydrothieno[2,3-d]pyrimidine-2-carboxamide] the figure was 93%; with `Cc1sc2nc(C(=O)NCc3cccc(OCCSc4nc[nH]n4)c3)[nH]c(=O)c2c1C` [Example 14, 5,6-dimethyl-4-oxo-N-[(3-{[2-(1H-1,2,4-triazol-3-ylthio)ethyl]oxy}phenyl)methyl]-3,4-dihydrothieno[2,3-d]pyrimidine-2-carboxamide], 98%; with `COC(=O)c1ccc(OCCn2ncc3nc(C(=O)NCc4cccc(OCCOc5nc[nH]n5)c4)[nH]c(=O)c32)cc1` [Example 47, methyl 4-({2-[7-oxo-5-({[(3-{[2-(1H-1,2,4-triazol-3-yloxy)ethyl]oxy}phenyl)methyl]amino)carbonyl}-6,7-dihydro-1H-pyrazolo[4,3-d]pyrimidin-1-yl]ethyl}oxy)benzoate], 98%.

On to `N#Cc1ccc2nc(C(=O)NCc3cccc(OCCCSc4nc[nH]n4)c3)[nH]c(=O)c2c1` [Example 15, 6-cyano-4-oxo-N-[(3-{[3-(1H-1,2,4-triazol-3-ylthio)propyl]oxy}phenyl)methyl]-3,4-dihydroquinazoline-2-carboxamide], for which the inhibition at 1 µM came out at 98%. As for `O=C(O)c1ccc(COCc2csc3nc(C(=O)NCc4ccnc(OCCCc5nc[nH]n5)c4)[nH]c(=O)c23)cc1` [Example 42, 4-[({[4-oxo-2-({[(2-{[3-(1H-1,2,4-triazol-3-yl)propyl]oxy}pyridin-4-yl)methyl]amino}carbonyl)-3,4-dihydrothieno[2,3-d]pyrimidin-5-yl]-methyl}oxy)methyl]benzoic acid], the inhibition at 1 µM came to 98%.

`Cc1cc2c(=O)[nH]c(C(=O)NCc3cccc(OCCSc4nc[nH]n4)c3)nc2s1` [Example 13, 6-methyl-4-oxo-N-[(3-{[2-(1H-1,2,4-triazol-3-ylthio)ethyl]oxy}phenyl)methyl]-3,4-dihydrothieno[2,3-d]pyrimidine-2-carboxamide]: the inhibition at 1 µM is 97%. The result for `N#CCc1csc2nc(C(=O)NCc3cccc(OCCOc4nc[nH]n4)c3)[nH]c(=O)c12` [Example 29, 5-(cyanomethyl)-4-oxo-N-[(3-{[2-(1H-1,2,4-triazol-3-yloxy)ethyl]oxy}phenyl)methyl]-3,4-dihydrothieno[2,3-d]pyrimidine-2-carboxamide] reads 98%; that for `O=C(NCc1cccc(OCCSc2nc[nH]n2)c1)c1nc2ccc(Cl)cc2c(=O)[nH]1` [Example 5, 6-chloro-4-oxo-N-[(3-{[2-(1H-1,2,4-triazol-3-ylthio)ethyl]oxy}phenyl)methyl]-3,4-dihydroquinazoline-2-carboxamide], 97%. Take `O=C(NCc1ccnc(OCCSc2nc[nH]n2)c1)c1nc2ccccc2c(=O)[nH]1` [Example 19, 4-oxo-N-[(2-{[2-(1H-1,2,4-triazol-3-ylthio)ethyl]oxy}pyridin-4-yl)methyl]-3,4-dihydroquinazoline-2-carboxamide]: the inhibition at 1 µM turned out to be 93%. As to `N#Cc1ccc2nc(C(=O)NCc3cccc(OCCSc4nc[nH]n4)c3)[nH]c(=O)c2c1` [Example 2, 6-cyano-4-oxo-N-[(3-{[2-(1H-1,2,4-triazol-3-ylthio)ethyl]oxy}phenyl)methyl]-3,4-dihydroquinazoline-2-carboxamide], the inhibition at 1 µM is 97%. The result for `O=C(NCc1cccc(COCc2nc[nH]n2)c1)c1nc2ccccc2c(=O)[nH]1` [Example 30, 4-oxo-N-[(3-{[(1H-1,2,4-triazol-3-ylmethyl)oxy]methyl}phenyl)methyl]-3,4-dihydroquinazoline-2-carboxamide] reads 96%; that for `N#Cc1ccc2nc(C(=O)NCc3cccc(NC(=O)CCc4nc[nH]n4)c3)[nH]c(=O)c2c1` [Example 32, 6-cyano-4-oxo-N-[(3-{[3-(1H-1,2,4-triazol-3-yl)propanoyl]amino}phenyl)methyl]-3,4-dihydroquinazoline-2-carboxamide], 98%. The result for `O=C(O)c1ccc(CCOc2c(F)ccc3nc(C(=O)NCc4cccc(OCCOc5nc[nH]n5)c4)[nH]c(=O)c23)cc1` [Example 46, 4-(2-{[6-fluoro-4-oxo-2-({[(3-{[2-(1H-1,2,4-triazol-3-yloxy)ethyl]oxy}phenyl)methyl]amino}carbonyl)-3,4-dihydroquinazolin-5-yl]oxy}ethyl)benzoic acid] reads 100%; that for `O=C(NCc1cccc(OCCSc2nc[nH]n2)c1)c1nc2ccc(F)c(F)c2c(=O)[nH]1` [Example 8, 5,6-difluoro-4-oxo-N-[(3-{[2-(1H-1,2,4-triazol-3-ylthio)ethyl]oxy}phenyl)methyl]-3,4-dihydroquinazoline-2-carboxamide], 99%; that for `N#Cc1ccc2nc(C(=O)NCc3cccc(OCCOc4nc[nH]n4)c3)[nH]c(=O)c2c1` [Example 25, 6-cyano-4-oxo-N-[(3-{[2-(1H-1,2,4-triazol-3-yloxy)ethyl]oxy}phenyl)methyl]-3,4-dihydroquinazoline-2-carboxamide], 97%.

As to `N#Cc1ccc2nc(C(=O)NCc3cccc(OCCCCSc4nc[nH]n4)c3)[nH]c(=O)c2c1` [Example 17, 6-cyano-4-oxo-N-[(3-{[4-(1H-1,2,4-triazol-3-ylthio)butyl]oxy}phenyl)methyl]-3,4-dihydroquinazoline-2-carboxamide], the inhibition at 1 µM worked out at 97%. Turning to `O=C(O)c1ccc(OCCn2ncc3nc(C(=O)NCc4cccc(OCCOc5nc[nH]n5)c4)[nH]c(=O)c32)cc1` [Example 48, 4-({2-[7-oxo-5-({[(3-{[2-(1H-1,2,4-triazol-3-yloxy)ethyl]oxy}phenyl)methyl]amino}carbonyl)-6,7-dihydro-1H-pyrazolo[4,3-d]pyrimidin-1-yl]ethyl}oxy)benzoic acid], the inhibition at 1 µM was found to be 99%. With `O=C(NCc1cccc(OCCOc2nc[nH]n2)c1)c1nc2ccc(F)c(NCc3cccc(OCCOc4nc[nH]n4)c3)c2c(=O)[nH]1` [Example 45, 6-fluoro-4-oxo-N-[(3-{[2-(1H-1,2,4-triazol-3-yloxy)ethyl]oxy}phenyl)methyl]-5-{[(3-{[2-(1H-1,2,4-triazol-3-yloxy)ethyl]oxy}phenyl)methyl]amino}-3,4-dihydroquinazoline-2-carboxamide] the figure was 97%. `CCOC(=O)c1ccc(COCc2csc3nc(C(=O)NCc4ccnc(OCCCc5nc[nH]n5)c4)[nH]c(=O)c23)cc1` [Example 41, ethyl 4-[({[4-oxo-2-({[(2-{[3-(1H-1,2,4-triazol-3-yl)propyl]oxy}pyridin-4-yl)methyl]amino}carbonyl)-3,4-dihydrothieno[2,3-d]pyrimidin-5-yl]methyl}oxy)methyl]benzoate]: the inhibition at 1 µM was 96%.
